Test results from PubChem BioAssay (NCI).
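Tested at 5 concentrations; 48 h exposure; 96-well plates; endpoints linearly interpolated, else capped at highest concentration. At the TGI there is no net growth.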

How the values were obtained:
Assay in all cases: NCI tumour cell line growth inhibition, 48 h
[1] = test system: UACC-62 melanoma
[2] = test system: UO-31 renal
[3] = test system: SNB-75 CNS
[4] = test system: SK-MEL-2 melanoma
[5] = test system: DLD-1 colon
[6] = test system: HCT-116 colon
[7] = test system: LXFL 529 NSCLC
[8] = test system: U251 CNS
[9] = test system: LOX IMVI melanoma
[10] = test system: RXF 393 renal
[11] = test system: ACHN renal
[12] = test system: MOLT-4 leukemia
[13] = test system: SK-MEL-28 melanoma
[14] = test system: K-562 leukemia
[15] = test system: HOP-18 NSCLC
[16] = test system: HL-60(TB) leukemia
[17] = test system: HCC-2998 colon
[18] = test system: SNB-78 CNS
[19] = test system: RXF-631 renal
[20] = test system: IGROV1 ovarian
[21] = test system: KM12 colon
[22] = test system: OVCAR-8 ovarian
[23] = test system: OVCAR-3 ovarian
[24] = test system: NCI-H226 lung
[25] = test system: SR leukemia
[26] = test system: OVCAR-5 ovarian
[27] = test system: M14 melanoma
[28] = test system: RPMI-8226 leukemia
[29] = test system: OVCAR-4 ovarian
[30] = test system: COLO 205 colon
[31] = test system: EKVX NSCLC
[32] = test system: SK-MEL-5 melanoma
[33] = test system: SNB-19 CNS
[34] = test system: SW-620 colon
[35] = test system: HCT-15 colon
[36] = test system: UACC-257 melanoma
[37] = test system: M19-MEL melanoma
[38] = test system: SF-539 CNS
[39] = test system: SF-295 CNS
[40] = test system: CAKI-1 renal
[41] = test system: NCI-H522 lung
[42] = test system: XF 498 CNS
[43] = test system: CCRF-CEM leukemia
[44] = test system: SF-268 CNS
[45] = test system: HT29 colon
[46] = test system: MALME-3M melanoma
[47] = test system: 786-0 renal
[48] = test system: KM20L2 colon
[49] = test system: NCI-H460 lung
[50] = test system: SN12C renal
[51] = test system: HOP-62 NSCLC
[52] = test system: A549 NSCLC
[53] = test system: NCI-H23 lung
[54] = test system: A498 renal
[55] = test system: DMS 273 small cell lung
[56] = test system: SK-OV-3 ovarian
[57] = test system: HOP-92 NSCLC
[58] = test system: TK-10 renal
[59] = test system: DMS 114 small cell lung

O=[N+]([O-])c1ccc(-c2noc(-c3ccccc3)c2C2=NCCN2)cc1
TGI [1]: > 100 µM
TGI [2]: > 100 µM
TGI [3]: > 100 µM
TGI [4]: > 100 µM
TGI [5]: > 100 µM
TGI [6]: > 100 µM
TGI [7]: > 100 µM
TGI [8]: > 100 µM
TGI [9]: > 100 µM
TGI [10]: > 100 µM
TGI [11]: > 100 µM
TGI [12]: > 100 µM
TGI [13]: > 100 µM
TGI [14]: > 100 µM
TGI [15]: > 100 µM
TGI [16]: > 100 µM
TGI [17]: > 100 µM
TGI [18]: > 100 µM
TGI [19]: > 100 µM
TGI [20]: > 100 µM
TGI [21]: > 100 µM
TGI [22]: > 100 µM
TGI [23]: 90.8 µM
TGI [24]: > 100 µM
TGI [25]: > 100 µM
TGI [26]: > 100 µM
TGI [27]: > 100 µM
TGI [28]: > 100 µM
TGI [29]: > 100 µM
TGI [30]: > 100 µM
TGI [31]: > 100 µM
TGI [32]: > 100 µM
TGI [33]: > 100 µM
TGI [34]: > 100 µM
TGI [35]: > 100 µM
TGI [36]: > 100 µM
TGI [37]: > 100 µM
TGI [38]: > 100 µM
TGI [39]: > 100 µM
TGI [40]: > 100 µM
TGI [41]: > 100 µM
TGI [42]: > 100 µM
TGI [43]: > 100 µM
TGI [44]: > 100 µM
TGI [45]: > 100 µM
TGI [46]: > 100 µM
TGI [47]: > 100 µM
TGI [48]: > 100 µM
TGI [49]: > 100 µM
TGI [50]: > 100 µM
TGI [51]: > 100 µM
TGI [52]: > 100 µM

CC(=O)OCC1(C)C(OC(C)=O)CCC2(C)C(CC(OC(C)=O)C3=CCOC3=O)C(O)(CO)CCC12 (configuration not stated)
TGI [53]: > 100 µM
TGI [1]: > 100 µM
TGI [2]: > 100 µM
TGI [3]: > 100 µM
TGI [5]: > 100 µM
TGI [6]: > 100 µM
TGI [7]: > 100 µM
TGI [8]: > 100 µM
TGI [9]: > 100 µM
TGI [10]: > 100 µM
TGI [11]: > 100 µM
TGI [13]: > 100 µM
TGI [54]: > 100 µM
TGI [14]: > 100 µM
TGI [15]: > 100 µM
TGI [16]: > 100 µM
TGI [17]: > 100 µM
TGI [18]: > 100 µM
TGI [19]: > 100 µM
TGI [20]: > 100 µM
TGI [21]: > 100 µM
TGI [22]: > 100 µM
TGI [23]: > 100 µM
TGI [24]: > 100 µM
TGI [26]: > 100 µM
TGI [27]: > 100 µM
TGI [28]: > 100 µM
TGI [29]: > 100 µM
TGI [55]: > 100 µM
TGI [30]: > 100 µM
TGI [31]: > 100 µM
TGI [32]: > 100 µM
TGI [33]: > 100 µM
TGI [34]: > 100 µM
TGI [36]: > 100 µM
TGI [37]: > 100 µM
TGI [38]: > 100 µM
TGI [39]: > 100 µM
TGI [40]: > 100 µM
TGI [41]: > 100 µM
TGI [42]: > 100 µM
TGI [43]: > 100 µM
TGI [44]: > 100 µM
TGI [45]: > 100 µM
TGI [46]: > 100 µM
TGI [47]: > 100 µM
TGI [48]: > 100 µM
TGI [56]: > 100 µM
TGI [57]: > 100 µM
TGI [49]: > 100 µM
TGI [50]: > 100 µM
TGI [58]: > 100 µM
TGI [51]: > 100 µM
TGI [52]: > 100 µM

CCCC(=O)c1c(NOC2OCC(OC(C)=O)C(OC(C)=O)C2OC(C)=O)nc(OC)n(C)c1=O (configuration not stated)
TGI [53]: > 100 µM
TGI [1]: > 100 µM
TGI [2]: > 100 µM
TGI [3]: > 100 µM
TGI [59]: > 100 µM
TGI [5]: > 100 µM
TGI [6]: > 100 µM
TGI [7]: > 100 µM
TGI [8]: > 100 µM
TGI [9]: > 100 µM
TGI [10]: > 100 µM
TGI [11]: > 100 µM
TGI [12]: > 100 µM
TGI [13]: > 100 µM
TGI [54]: > 100 µM
TGI [14]: 36 µM
TGI [15]: > 100 µM
TGI [16]: 3.09 µM
TGI [17]: > 100 µM
TGI [19]: > 100 µM
TGI [20]: > 100 µM
TGI [21]: > 100 µM
TGI [22]: > 100 µM
TGI [23]: > 100 µM
TGI [24]: > 100 µM
TGI [25]: > 100 µM
TGI [26]: > 100 µM
TGI [27]: > 100 µM
TGI [28]: > 100 µM
TGI [29]: > 100 µM
TGI [55]: > 100 µM
TGI [30]: > 100 µM
TGI [31]: > 100 µM
TGI [32]: > 100 µM
TGI [33]: > 100 µM
TGI [34]: > 100 µM
TGI [35]: > 100 µM
TGI [36]: > 100 µM
TGI [37]: > 100 µM
TGI [38]: > 100 µM
TGI [39]: > 100 µM
TGI [40]: > 100 µM
TGI [42]: > 100 µM
TGI [43]: 19.1 µM
TGI [44]: > 100 µM
TGI [45]: > 100 µM
TGI [46]: > 100 µM
TGI [47]: > 100 µM
TGI [48]: > 100 µM
TGI [56]: > 100 µM
TGI [57]: > 100 µM
TGI [49]: > 100 µM
TGI [50]: > 100 µM
TGI [58]: > 100 µM
TGI [51]: > 100 µM
TGI [52]: > 100 µM
